Test results as given in the NIST ThermoML archive (doi:10.1021/je700411p).

Assays:
[1] = Liquid; for mass density: 298.15 K, 101.33 kPa
[2] = refractive index (Na D-line) (dimensionless); conditions: 298.15 K; 101.33 kPa; Liquid; Standard Abbe refractometry

CC(=O)O [acetic acid]
Conditions	mass density [kg/m3]	refractive index
[1]	1043.9	–
[2]	–	1.3696

[1], Ebulliometric method (Recirculating still)
Conditions	vapor or sublimation pressure [kPa]
328.56 K	9.98
330.65 K	10.97
332.65 K	11.98
336.23 K	13.97
339.41 K	15.97
342.25 K	17.98
344.81 K	19.98
347.19 K	21.98
349.4 K	23.98
352.43 K	26.97
355.18 K	29.96
357.72 K	32.98
360.09 K	35.94
362.26 K	38.96
365 K	42.93
366.3 K	44.95
369.3 K	49.94
372.09 K	54.93
374.63 K	59.83
377.03 K	64.87
379.25 K	69.84
381.39 K	74.82
383.35 K	79.71
385.23 K	84.52
387.1 K	89.81
388.77 K	94.52
390.91 K	101.3

CCCCO [butan-1-ol]
Conditions	mass density [kg/m3]	refractive index
[1]	805.6	–
[2]	–	1.396

Conditions	vapor or sublimation pressure [kPa]
[1], 390.46 K	101.3

CCCCOC(C)=O [butyl ethanoate]
Conditions	mass density [kg/m3]	refractive index
[1]	876.02	–
[2]	–	1.3916

[1], Ebulliometric method (Recirculating still)
Conditions	vapor or sublimation pressure [kPa]
334.36 K	9.99
336.53 K	10.98
338.56 K	11.99
342.2 K	13.97
345.47 K	15.99
348.37 K	17.97
351.02 K	19.98
353.45 K	21.97
355.72 K	23.97
357.84 K	25.98
359.79 K	27.92
362.58 K	30.98
365.1 K	33.92
367.5 K	36.96
369.74 K	39.97
373.18 K	44.92
376.31 K	49.9
379.18 K	54.92
381.89 K	59.93
384.4 K	64.95
386.74 K	69.92
388.96 K	74.95
391.05 K	79.91
393.02 K	84.83
394.94 K	89.87
396.72 K	94.73
399.05 K	101.3
